Test system: 885512-296-R-J2-PDC complex spheroid viability
Test: Anticancer human tumor 885512-296-R-J2-PDC patient-derived breast carcinoma cell line growth inhibition
Conditions: for IC50: curve of first compound; for viability, T/C: stronger effect = lower value
In short: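 Drug combinations with the LSD1 inhibitor iadademstat tested on tumor cells co-cultured as spheroids with endothelial cells and mesenchymal stem cells. Concentrations descended in half-log increments from clinical Cmax or 10 microM.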
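Further: spheroids exposed to agents for 7 days before viability read.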

Compound: Cn1ncnc1C1c2n[nH]c(=O)c3cc(F)cc(c23)NC1c1ccc(F)cc1 (stereo not given) + NC1CC1c1ccc(-c2cccc(O)c2)cc1
- IC50 (second compound 0.1 µM): 0.0551 µM
- IC50 (second compound 0.316 µM): 0.051 µM
- IC50 (second compound 1 µM): 0.041 µM
- IC50 (second compound 3.16 µM): 0.0281 µM
- IC50 (second compound 10 µM): 0.0155 µM
- viability, T/C (second compound 0.1 µM, first compound 0.000316 µM): 138%
- viability, T/C (second compound 0.1 µM, first compound 0.001 µM): 114%
- viability, T/C (second compound 0.1 µM, first compound 0.00316 µM): 98.7%
- viability, T/C (second compound 0.1 µM, first compound 0.01 µM): 86.2%
- viability, T/C (second compound 0.1 µM, first compound 0.0316 µM): 63.6%
- viability, T/C (second compound 0.1 µM, first compound 0.1 µM): 35.8%
- viability, T/C (second compound 0.316 µM, first compound 0.000316 µM): 112%
- viability, T/C (second compound 0.316 µM, first compound 0.001 µM): 121%
- viability, T/C (second compound 0.316 µM, first compound 0.00316 µM): 97%
- viability, T/C (second compound 0.316 µM, first compound 0.01 µM): 89.2%
- viability, T/C (second compound 0.316 µM, first compound 0.0316 µM): 64.3%
- viability, T/C (second compound 0.316 µM, first compound 0.1 µM): 30.3%
- viability, T/C (second compound 1 µM, first compound 0.000316 µM): 118%
- viability, T/C (second compound 1 µM, first compound 0.001 µM): 114%
- viability, T/C (second compound 1 µM, first compound 0.00316 µM): 101%
- viability, T/C (second compound 1 µM, first compound 0.01 µM): 86.3%
- viability, T/C (second compound 1 µM, first compound 0.0316 µM): 53.7%
- viability, T/C (second compound 1 µM, first compound 0.1 µM): 32.3%
- viability, T/C (second compound 3.16 µM, first compound 0.000316 µM): 105%
- viability, T/C (second compound 3.16 µM, first compound 0.001 µM): 110%
- viability, T/C (second compound 3.16 µM, first compound 0.00316 µM): 94.2%
- viability, T/C (second compound 3.16 µM, first compound 0.01 µM): 77.4%
- viability, T/C (second compound 3.16 µM, first compound 0.0316 µM): 46.7%
- viability, T/C (second compound 3.16 µM, first compound 0.1 µM): 27.2%
- viability, T/C (second compound 10 µM, first compound 0.000316 µM): 72.4%
- viability, T/C (second compound 10 µM, first compound 0.001 µM): 80.2%
- viability, T/C (second compound 10 µM, first compound 0.00316 µM): 70.5%
- viability, T/C (second compound 10 µM, first compound 0.01 µM): 55.5%
- viability, T/C (second compound 10 µM, first compound 0.0316 µM): 39.1%
- viability, T/C (second compound 10 µM, first compound 0.1 µM): 20.5%

Compound: NS(=O)(=O)OCC1CC(n2ccc3c(NC4CCc5ccccc54)ncnc32)CC1O (stereo not given) + NC1CC1c1ccc(-c2cccc(O)c2)cc1
- IC50 (second compound 0.1 µM): < 0.00949 µM
- IC50 (second compound 0.316 µM): < 0.00949 µM
- IC50 (second compound 1 µM): < 0.00949 µM
- IC50 (second compound 3.16 µM): < 0.00949 µM
- IC50 (second compound 10 µM): < 0.00949 µM
- viability, T/C (second compound 0.1 µM, first compound 0.00949 µM): 15.9%
- viability, T/C (second compound 0.1 µM, first compound 0.03 µM): 6.61%
- viability, T/C (second compound 0.1 µM, first compound 0.0949 µM): 2.38%
- viability, T/C (second compound 0.1 µM, first compound 0.3 µM): 1.74%
- viability, T/C (second compound 0.1 µM, first compound 0.949 µM): 1.42%
- viability, T/C (second compound 0.1 µM, first compound 3 µM): 1.17%
- viability, T/C (second compound 0.316 µM, first compound 0.00949 µM): 13.4%
- viability, T/C (second compound 0.316 µM, first compound 0.03 µM): 5.58%
- viability, T/C (second compound 0.316 µM, first compound 0.0949 µM): 2.27%
- viability, T/C (second compound 0.316 µM, first compound 0.3 µM): 1.48%
- viability, T/C (second compound 0.316 µM, first compound 0.949 µM): 1.54%
- viability, T/C (second compound 0.316 µM, first compound 3 µM): 1.19%
- viability, T/C (second compound 1 µM, first compound 0.00949 µM): 11.8%
- viability, T/C (second compound 1 µM, first compound 0.03 µM): 5.8%
- viability, T/C (second compound 1 µM, first compound 0.0949 µM): 2.84%
- viability, T/C (second compound 1 µM, first compound 0.3 µM): 1.53%
- viability, T/C (second compound 1 µM, first compound 0.949 µM): 1.65%
- viability, T/C (second compound 1 µM, first compound 3 µM): 1.49%
- viability, T/C (second compound 3.16 µM, first compound 0.00949 µM): 10.9%
- viability, T/C (second compound 3.16 µM, first compound 0.03 µM): 4.37%
- viability, T/C (second compound 3.16 µM, first compound 0.0949 µM): 2.28%
- viability, T/C (second compound 3.16 µM, first compound 0.3 µM): 1.46%
- viability, T/C (second compound 3.16 µM, first compound 0.949 µM): 1.66%
- viability, T/C (second compound 3.16 µM, first compound 3 µM): 1.1%
- viability, T/C (second compound 10 µM, first compound 0.00949 µM): 8.81%
- viability, T/C (second compound 10 µM, first compound 0.03 µM): 4.76%
- viability, T/C (second compound 10 µM, first compound 0.0949 µM): 1.87%
- viability, T/C (second compound 10 µM, first compound 0.3 µM): 1.89%
- viability, T/C (second compound 10 µM, first compound 0.949 µM): 0.97%
- viability, T/C (second compound 10 µM, first compound 3 µM): 0.66%

Reference: PubChem BioAssay AID1918946 (Molecular Pharmacology Branch, DTP, NCI, 2023)
